Source: ChEMBL document CHEMBL1201862, “PubChem BioAssay data set” (2004)
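Test compounds were applied to cells in 96-well plates for 48 hours at 5 doses. GI50 is the concentration that inhibits growth by half.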 The source made the active and inactive calls. Cut-off read from the data, not from the text of the source: active = GI50 up to about 1.1 µM and inactive = higher.

Experiments:
Assay in all cases: growth of human tumour cells (NCI), 48 h
T47D = tested on: T47D
NCI-H460 = tested on: NCI-H460
OVCAR-8 = tested on: OVCAR-8
HT-29 = tested on: HT-29
NCI/ADR-RES = tested on: NCI/ADR-RES
SF-539 = tested on: SF-539
SF-268 = tested on: SF-268
HOP-62 = tested on: HOP-62
COLO 205 = tested on: COLO 205
HCC 2998 = tested on: HCC 2998
SN12C = tested on: SN12C
A549 = tested on: A549
MDA-MB-231 = tested on: MDA-MB-231
EKVX = tested on: EKVX
KM12 = tested on: KM12
SW-620 = tested on: SW-620
NCI-H226 = tested on: NCI-H226
M14 = tested on: M14
OVCAR-5 = tested on: OVCAR-5
SNB-19 = tested on: SNB-19
UACC-257 = tested on: UACC-257
SK-OV-3 = tested on: SK-OV-3
NCI-H23 = tested on: NCI-H23
SR = tested on: SR
OVCAR-3 = tested on: OVCAR-3
RXF 393 = tested on: RXF 393
UACC-62 = tested on: UACC-62
HOP-92 = tested on: HOP-92
MCF7 = tested on: MCF7
CAKI-1 = tested on: CAKI-1
UO-31 = tested on: UO-31
SF-295 = tested on: SF-295
SNB-75 = tested on: SNB-75
SK-MEL-2 = tested on: SK-MEL-2
786-0 = tested on: 786-0
ACHN = tested on: ACHN
OVCAR-4 = tested on: OVCAR-4
DU-145 = tested on: DU-145
TK-10 = tested on: TK-10
HL-60 = tested on: HL-60
NCI-H522 = tested on: NCI-H522
LOX IMVI = tested on: LOX IMVI
HCT-116 = tested on: HCT-116
HCT-15 = tested on: HCT-15
PC-3 = tested on: PC-3
K562 = tested on: K562
SK-MEL-28 = tested on: SK-MEL-28
MDA-MB-435 = tested on: MDA-MB-435
Hs-578T = tested on: Hs-578T
MOLT-4 = tested on: MOLT-4
Malme-3M = tested on: Malme-3M
RPMI-8226 = tested on: RPMI-8226
CCRF-CEM = tested on: CCRF-CEM
IGROV-1 = tested on: IGROV-1
SK-MEL-5 = tested on: SK-MEL-5
MDA-N = tested on: MDA-N
U-251 = tested on: U-251
A498 = tested on: A498
BT-549 = tested on: BT-549

COc1c(C(=O)/C(=N/Nc2ccccc2)C(C)=O)c(O)c(OC)c2occc12
GI50 (T47D): 19.3 µM (inactive) | GI50 (NCI-H460): 38.8 µM (inactive) | GI50 (OVCAR-8): 62.2 µM (inactive) | GI50 (HT-29): 37.3 µM (inactive) | GI50 (NCI/ADR-RES): 56.5 µM (inactive) | GI50 (SF-539): > 100 µM (inactive) | GI50 (SF-268): > 100 µM (inactive) | GI50 (HOP-62): 97.5 µM (inactive) | GI50 (COLO 205): 32.2 µM (inactive) | GI50 (HCC 2998): 82.4 µM (inactive) | GI50 (SN12C): 63.7 µM (inactive) | GI50 (A549): 52.6 µM (inactive) | GI50 (MDA-MB-231): 18.5 µM (inactive) | GI50 (EKVX): 22.2 µM (inactive) | GI50 (KM12): 27.7 µM (inactive) | GI50 (SW-620): 77.8 µM (inactive) | GI50 (NCI-H226): 52.1 µM (inactive) | GI50 (M14): > 100 µM (inactive) | GI50 (OVCAR-5): > 100 µM (inactive) | GI50 (SNB-19): 36.1 µM (inactive) | GI50 (UACC-257): 34.9 µM (inactive) | GI50 (SK-OV-3): 65.2 µM (inactive) | GI50 (NCI-H23): 33.3 µM (inactive) | GI50 (SR): 35.8 µM (inactive) | GI50 (OVCAR-3): 67.9 µM (inactive) | GI50 (RXF 393): 13.7 µM (inactive) | GI50 (UACC-62): 20.5 µM (inactive) | GI50 (HOP-92): 9.38 µM (inactive) | GI50 (MCF7): 25.4 µM (inactive) | GI50 (CAKI-1): > 100 µM (inactive) | GI50 (UO-31): 17.2 µM (inactive) | GI50 (SF-295): 48.9 µM (inactive) | GI50 (SNB-75): 19.8 µM (inactive) | GI50 (SK-MEL-2): 67 µM (inactive) | GI50 (786-0): > 100 µM (inactive) | GI50 (ACHN): 50.4 µM (inactive) | GI50 (OVCAR-4): > 100 µM (inactive) | GI50 (DU-145): > 100 µM (inactive) | GI50 (TK-10): 77.1 µM (inactive) | GI50 (HL-60): 22.6 µM (inactive) | GI50 (NCI-H522): 41.8 µM (inactive) | GI50 (LOX IMVI): 45.9 µM (inactive) | GI50 (HCT-116): 34 µM (inactive) | GI50 (HCT-15): 56.2 µM | GI50 (PC-3): 27 µM (inactive) | GI50 (K562): 53.5 µM (inactive) | GI50 (SK-MEL-28): > 100 µM (inactive) | GI50 (MDA-MB-435): 34 µM (inactive) | GI50 (Hs-578T): 37.5 µM (inactive) | GI50 (MOLT-4): 48.3 µM (inactive) | GI50 (Malme-3M): 24.5 µM (inactive) | GI50 (RPMI-8226): 17.2 µM (inactive) | GI50 (CCRF-CEM): 74.1 µM (inactive) | GI50 (IGROV-1): 67.9 µM (inactive) | GI50 (SK-MEL-5): 13.7 µM (inactive) | GI50 (MDA-N): 32.1 µM (inactive) | GI50 (U-251): 59.7 µM (inactive)

CCC(O)c1ccc(/N=C/c2ccccc2O)cc1 (stereo not given)
GI50 (T47D): 8.97 µM (inactive) | GI50 (NCI-H460): > 100 µM (inactive) | GI50 (HT-29): > 100 µM (inactive) | GI50 (NCI/ADR-RES): > 100 µM (inactive) | GI50 (SF-539): > 100 µM (inactive) | GI50 (SF-268): > 100 µM (inactive) | GI50 (HOP-62): > 100 µM (inactive) | GI50 (COLO 205): 49.9 µM (inactive) | GI50 (HCC 2998): > 100 µM (inactive) | GI50 (A549): > 100 µM (inactive) | GI50 (MDA-MB-231): > 100 µM (inactive) | GI50 (EKVX): > 100 µM (inactive) | GI50 (KM12): > 100 µM (inactive) | GI50 (SW-620): > 100 µM (inactive) | GI50 (NCI-H226): > 100 µM (inactive) | GI50 (M14): > 100 µM (inactive) | GI50 (OVCAR-5): > 100 µM (inactive) | GI50 (SNB-19): > 100 µM (inactive) | GI50 (SK-OV-3): > 100 µM (inactive) | GI50 (NCI-H23): > 100 µM (inactive) | GI50 (SR): 90.2 µM (inactive) | GI50 (OVCAR-3): > 100 µM (inactive) | GI50 (RXF 393): > 100 µM (inactive) | GI50 (A498): > 100 µM (inactive) | GI50 (UACC-62): > 100 µM (inactive) | GI50 (HOP-92): > 100 µM (inactive) | GI50 (MCF7): > 100 µM (inactive) | GI50 (CAKI-1): > 100 µM (inactive) | GI50 (UO-31): > 100 µM (inactive) | GI50 (SF-295): > 100 µM (inactive) | GI50 (SNB-75): > 100 µM (inactive) | GI50 (SK-MEL-2): > 100 µM (inactive) | GI50 (786-0): > 100 µM (inactive) | GI50 (ACHN): > 100 µM (inactive) | GI50 (OVCAR-4): > 100 µM (inactive) | GI50 (DU-145): > 100 µM (inactive) | GI50 (TK-10): > 100 µM (inactive) | GI50 (HL-60): > 100 µM (inactive) | GI50 (NCI-H522): > 100 µM (inactive) | GI50 (LOX IMVI): > 100 µM (inactive) | GI50 (HCT-116): 74.1 µM (inactive) | GI50 (HCT-15): > 100 µM | GI50 (PC-3): > 100 µM (inactive) | GI50 (BT-549): > 100 µM (inactive) | GI50 (K562): > 100 µM (inactive) | GI50 (SK-MEL-28): > 100 µM (inactive) | GI50 (MDA-MB-435): > 100 µM (inactive) | GI50 (MOLT-4): > 100 µM (inactive) | GI50 (Malme-3M): > 100 µM (inactive) | GI50 (RPMI-8226): > 100 µM (inactive) | GI50 (IGROV-1): > 100 µM (inactive) | GI50 (SK-MEL-5): > 100 µM (inactive) | GI50 (U-251): > 100 µM (inactive)
